Experimental data published in ChEMBL document CHEMBL4680288, “Cholesteryl ester transfer protein (CETP) inhibitors based on cyclic urea, bicyclic urea and bicyclic sulfamide cores” (Bioorg Med Chem Lett, 2021).

Tests used:
[1] = target: T1, Cholesteryl ester transfer protein (Homo sapiens, UniProt P11597); experiment: Inhibition of recombinant CETP (unknown origin) assessed as inhibition of transfer of [3H] cholesteryl oleate or [3H] triolein between exogenous LDL and HDL in 2% human serum
T1 sequence (P11597 whole entry): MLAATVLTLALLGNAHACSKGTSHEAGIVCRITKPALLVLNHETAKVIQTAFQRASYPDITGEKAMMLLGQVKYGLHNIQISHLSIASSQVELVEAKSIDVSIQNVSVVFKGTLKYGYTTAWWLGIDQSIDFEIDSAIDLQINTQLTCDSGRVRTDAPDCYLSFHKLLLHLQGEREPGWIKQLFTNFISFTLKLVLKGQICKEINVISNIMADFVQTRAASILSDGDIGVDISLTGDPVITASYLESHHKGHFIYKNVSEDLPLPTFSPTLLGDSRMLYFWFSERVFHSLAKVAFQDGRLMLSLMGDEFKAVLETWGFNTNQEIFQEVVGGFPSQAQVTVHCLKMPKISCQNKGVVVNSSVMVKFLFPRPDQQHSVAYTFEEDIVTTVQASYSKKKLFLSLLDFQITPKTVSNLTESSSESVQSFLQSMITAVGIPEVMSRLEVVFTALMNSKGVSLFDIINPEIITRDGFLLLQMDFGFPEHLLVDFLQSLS

[2] = target: T1, Cholesteryl ester transfer protein; experiment: Inhibition of CETP in 95% human serum assessed as inhibition of transfer of [3H] cholesteryl oleate or [3H] triolein between LDL and HDL; assay type: cell-free
[3] = In vivo inhibition of CETP in cynomolgus-CETP transgenic mouse plasma at 0.3 mg/kg, po measured after 4 hrs; assay type: functional
[4] = Plasma concentration in cynomolgus-CETP transgenic mouse at 0.3 mg/kg, po measured after 4 hrs; assay type: ADME, organism-based
[5] = In vivo inhibition of CETP in cynomolgus-CETP transgenic mouse assessed as increase in plasma HDL-C level at 0.3 mg/kg, po measured after 4 hrs; assay type: functional; design: scale not given: the % may be the effect or the level left
[6] = In vivo inhibition of CETP in cynomolgus-CETP transgenic mouse assessed as increase in plasma HDL-C level at 1 mg/kg, po measured after 4 hrs; assay type: functional; design: scale not given: the % may be the effect or the level left
[7] = In vivo inhibition of CETP in cynomolgus-CETP transgenic mouse plasma at 1 mg/kg, po measured after 4 hrs; assay type: functional
[8] = Plasma concentration in cynomolgus-CETP transgenic mouse at 1 mg/kg, po measured after 4 hrs; assay type: ADME, organism-based

SMILES: COc1ccc(-c2ccc(C(=O)O)cc2C)cc1-c1ccc(C(F)(F)F)cc1[C@@H]1CC[C@H]2[C@@H](c3cc(C(F)(F)F)cc(C(F)(F)F)c3)NC(=O)N12
- IC50 [1]: 379 nM

SMILES: COc1ccc(-c2cccnc2C)cc1-c1ccc(C(F)(F)F)cc1[C@@H]1CC[C@H]2[C@@H](c3cc(C(F)(F)F)cc(C(F)(F)F)c3)NC(=O)N12
- IC50 [1]: 151 nM

SMILES: COc1ccc([C@H]2CC[C@H](C(=O)O)CC2)cc1-c1ccc(C(F)(F)F)cc1[C@@H]1CC[C@H]2[C@@H](c3cc(C(F)(F)F)cc(C(F)(F)F)c3)NS(=O)(=O)N12
- IC50 [2]: 2680 nM
- IC50 [1]: 394 nM

SMILES: COc1ccc(-c2ccc(C(=O)O)nc2C)cc1-c1ccc(C(F)(F)F)cc1[C@@H]1CC[C@H]2[C@@H](c3cc(C(F)(F)F)cc(C(F)(F)F)c3)NC(=O)N12
- IC50 [1]: 468 nM

SMILES: COc1cc(F)c(C(C)C)cc1-c1ccc(C(F)(F)F)cc1CN1C(=O)N[C@H](c2cc(C(F)(F)F)cc(C(F)(F)F)c2)[C@@H]1C
- IC50 [2]: > 10000 nM
- IC50 [1]: 2780 nM

SMILES: COc1ncc(-c2ccc(C(=O)O)cc2C)cc1-c1ccc(C(F)(F)F)cc1[C@@H]1CC[C@H]2[C@@H](c3cc(C(F)(F)F)cc(C(F)(F)F)c3)N(C)C(=O)N12
- IC50 [1]: 248 nM

SMILES: COc1ncc(-c2c(C)cc(C(=O)O)cc2C)cc1-c1ccc(C(F)(F)F)cc1[C@@H]1CC[C@H]2[C@@H](c3cc(C(F)(F)F)cc(C(F)(F)F)c3)NC(=O)N12
- IC50 [1]: 104 nM

SMILES: COc1ncc(-c2ccc(C(=O)O)cc2C)cc1-c1ccc(C(F)(F)F)cc1CN1C(=O)N(C)[C@H](c2cc(C(F)(F)F)cc(C(F)(F)F)c2)[C@@H]1C
- IC50 [2]: 129 nM
- inhibition in vivo at 0.3 mg/kg [3]: 77%
- concentration at 4 h [4]: 630 nM
- Activity [5]: 51%
- IC50 [1]: 28 nM

SMILES: COc1ncc(-c2ccc(C(=O)O)cc2C)cc1-c1ccc(C(F)(F)F)cc1CN1C(=O)N[C@H](c2cc(C(F)(F)F)cc(C(F)(F)F)c2)[C@@H]1C
- IC50 [2]: 397 nM
- IC50 [1]: 38 nM

SMILES: COc1ccc([C@H]2CC[C@H](C(=O)O)CC2)cc1-c1ccc(C(F)(F)F)cc1[C@@H]1CC[C@H]2[C@@H](c3cc(C(F)(F)F)cc(C(F)(F)F)c3)NC(=O)N12
- IC50 [2]: 1730 nM
- IC50 [1]: 1110 nM

SMILES: COc1ccc(-c2ccc(C(=O)O)cc2C)cc1-c1ccc(C(F)(F)F)cc1CN1C(=O)N[C@H](c2cc(C(F)(F)F)cc(C(F)(F)F)c2)[C@@H]1C
- IC50 [2]: 339 nM
- Activity [6]: 101%
- inhibition in vivo at 1 mg/kg [7]: 87%
- concentration at 4 h [8]: 700 nM
- IC50 [1]: 37 nM

SMILES: COc1ncc(-c2c(C)cc(C(=O)NC3(C#N)CC3)cc2C)cc1-c1ccc(C(F)(F)F)cc1[C@@H]1CC[C@H]2[C@@H](c3cc(C(F)(F)F)cc(C(F)(F)F)c3)NC(=O)N12
- IC50 [2]: 95 nM
- Activity [6]: 30%
- inhibition in vivo at 1 mg/kg [7]: 67%
- concentration at 4 h [8]: 1000 nM
- IC50 [1]: 55 nM

SMILES: COc1ccc(-c2ccc(C(=O)O)cc2C)cc1-c1ccc(C(F)(F)F)cc1[C@@H]1CC[C@H]2[C@@H](c3cc(C(F)(F)F)cc(C(F)(F)F)c3)NS(=O)(=O)N12
- IC50 [1]: 135 nM

SMILES: COc1ccc(-c2ccc(C(=O)O)cc2C)cc1-c1ccc(C(F)(F)F)nc1CN1C(=O)N[C@H](c2cc(C(F)(F)F)cc(C(F)(F)F)c2)[C@@H]1C
- IC50 [2]: 446 nM
- Activity [6]: 86%
- inhibition in vivo at 1 mg/kg [7]: 89%
- concentration at 4 h [8]: 830 nM
- IC50 [1]: 18 nM

SMILES: COc1ccc(CCC(=O)O)cc1-c1ccc(C(F)(F)F)cc1[C@@H]1CC[C@H]2[C@@H](c3cc(C(F)(F)F)cc(C(F)(F)F)c3)NC(=O)N12
- IC50 [1]: 550 nM

SMILES: COc1ccc(-c2ccc(C(=O)O)cc2C)cc1-c1cnc(C(F)(F)F)cc1[C@@H]1CC[C@H]2[C@@H](c3cc(C(F)(F)F)cc(C(F)(F)F)c3)NC(=O)N12
- IC50 [1]: 544 nM

SMILES: COc1ccc(-c2ccc(C(=O)O)cc2C)cc1-c1ccc(C(F)(F)F)cc1[C@@H]1CC[C@H]2[C@@H](c3cc(C(F)(F)F)cc(C(F)(F)F)c3)N(C)C(=O)N12
- IC50 [1]: 414 nM

SMILES: COc1ncc(-c2ccc(C(=O)O)cc2C)cc1-c1ccc(C(F)(F)F)cc1[C@@H]1CC[C@H]2[C@@H](c3cc(C(F)(F)F)cc(C(F)(F)F)c3)NC(=O)N12
- IC50 [2]: 305 nM
- inhibition in vivo at 0.3 mg/kg [3]: 32%
- concentration at 4 h [4]: 550 nM
- Activity [5]: 58%
- IC50 [1]: 106 nM

SMILES: COc1ncc(-c2ccc(C(=O)O)cc2C)cc1-c1ccc(C(F)(F)F)nc1CN1C(=O)N[C@H](c2cc(C(F)(F)F)cc(C(F)(F)F)c2)[C@@H]1C
- IC50 [2]: 364 nM
- Activity [6]: 139%
- inhibition in vivo at 1 mg/kg [7]: 87%
- concentration at 4 h [8]: 1260 nM
- IC50 [1]: 17 nM
